Source: US20230141403A1 (Hoffmann-La Roche Inc., priority 2020, published 2023)
Where a name gives a salt, the structure may show the parent alone.

System: Acinetobacter baumannii ATCC17978
Assay: Antimicrobial susceptibility testing: 90% growth inhibitory concentration (IC90) determination
Type: cell-based
Conditions: ATCC17978, 90% growth inhibitory concentration, Iso-Sensitest broth, optical density at 600 nm over 16h, 35±2° C., read-out: AB ATCC 17978 IC90
Experimental: Antimicrobial Susceptibility Testing:
90% Growth Inhibitory Concentration (IC90) Determination
The in vitro antimicrobial activity of the compounds was determined according to the following procedure:
The assay used a 10-points Iso-Sensitest broth medium to measure quantitatively the in vitro activity of the compounds against Acinetobacter baumannii ATCC17961 or ATCC17978.
Stock compounds in DMSO were serially twofold diluted (e.g. range from 50 to 0.097 μM final concentration) in 384 wells microtiter plates and inoculated with 49 μl the bacterial suspension in Iso-Sensitest medium to have a final cell concentration of ˜5×10^(5) CFU/ml in a final volume/well of 50 ul/well. Microtiter plates were incubated at 35±2° C.
Bacterial cell growth was determined with the measurement of optical density at λ=600 nm each 20 minutes over a time course of 16h. Growth inhibition was calculated during the logarithmic growth of the bacterial cells with determination of the concentration inhibiting 50% (IC50) and 90% (IC90) of the growth.
Table 1 provides the 90% growth inhibitory concentrations (IC90) in micromoles per liter of the compounds of present invention obtained against the strain Acinetobacter baumannii ATCC17978.

IC90 [nM] | Structure (SMILES)
770 | COCC(=O)Nc1ccc(Nc2nccn3c(-c4ccc(OC)cc4)cnc23)cc1 [Example 19, 2-Methoxy-N-{4-[3-(4-methoxy-phenyl)-imidazo[1,2-a]pyrazin-8-ylamino]-phenyl}-acetamide]
110 | COc1ccc(-c2cnc3c(Nc4ccc(NC(C)=O)c(C)c4)nccn23)cc1 [Example 20, N-{4-[3-(4-Methoxy-phenyl)-imidazo[1,2-a]pyrazin-8-ylamino]-2-methyl-phenyl}-acetamide]
550 | COc1ccc(-c2cnc3c(Nc4ccc(NC(C)=O)cc4)nccn23)c(F)c1 [Example 34, N-(4-((3-(2-fluoro-4-methoxyphenyl)imidazo[1,2-a]pyrazin-8-yl)amino)phenyl)acetamide]
150 | O=C1CCCN1c1ccc(Nc2nccn3c(-c4ccc(OC(F)F)cc4)cnc23)cc1 [Example 35]
840 | COc1ccc(-c2cnc3c(Nc4ccc(NC(=O)CN5CCOCC5)cc4)nccn23)cc1Cl [Example 36, N-(4-((3-(3-chloro-4-methoxyphenyl)imidazo[1,2-a]pyrazin-8-yl)amino)phenyl)-2-morpholinoacetamide]
200 | CCc1cc(Nc2nccn3c(-c4ccc(OC)cc4)cnc23)ccc1NC(C)=O [Example 38, N-(2-ethyl-4-((3-(4-methoxyphenyl)imidazo[1,2-a]pyrazin-8-yl)amino)phenyl)acetamide]
130 | CC(=O)Nc1ccc(Nc2nccn3c(-c4ccc(OC(F)F)cc4)cnc23)cc1C [Example 40]
520 | CC(=O)Nc1ccc(Nc2nccn3c(-c4ccc(OC(F)F)c(Cl)c4)cnc23)cc1 [Example 41, N-(4-((3-(3-chloro-4-(difluoromethoxy)phenyl)imidazo[1,2-a]pyrazin-8-yl)amino)phenyl)acetamide]
830 | CC(=O)Nc1ccc(Nc2nccn3c(-c4ccc(Cl)cc4)cnc23)cc1 [Example 42, N-(4-((3-(4-chlorophenyl)imidazo[1,2-a]pyrazin-8-yl)amino)phenyl)acetamide]
120 | CC(=O)Nc1ccc(Nc2nccn3c(-c4ccc(Cl)cc4)cnc23)cc1C [Example 43, N-(4-((3-(4-chlorophenyl)imidazo[1,2-a]pyrazin-8-yl)amino)-2-methylphenyl)acetamide]
260 | COc1ccc(-c2cnc3c(Nc4ccc(N5CCCCC5=O)cc4)nccn23)cc1Cl [Example 44, 1-(4-((3-(3-Chloro-4-methoxyphenyl)imidazo[1,2-a]pyrazin-8-yl)amino)phenyl)piperidin-2-one]
160 | CCc1cc(Nc2nccn3c(-c4ccc(OC)c(Cl)c4)cnc23)ccc1NC(C)=O [Example 45, N-(4-((3-(3-chloro-4-methoxyphenyl)imidazo[1,2-a]pyrazin-8-yl)amino)-2-ethylphenyl)acetamide]
890 | COc1ccc(-c2cnc3c(Nc4ccc(NC(C)=O)c(Cl)c4)nccn23)cc1Cl [Example 46, N-(2-chloro-4-((3-(3-chloro-4-methoxyphenyl)imidazo[1,2-a]pyrazin-8-yl)amino)phenyl)acetamide]
130 | COc1ccc(-c2cnc3c(Nc4ccc(NC(C)=O)c(C)c4)nccn23)cc1F [Example 47, N-(4-((3-(3-fluoro-4-methoxyphenyl)imidazo[1,2-a]pyrazin-8-yl)amino)-2-methylphenyl)acetamide]
300 | COc1ccc(-c2cnc3c(Nc4ccc(NC(=O)CN5CCNCC5)c(C)c4)nccn23)cc1Cl [Example 49, N-(4-((3-(3-chloro-4-methoxyphenyl)imidazo[1,2-a]pyrazin-8-yl)amino)-2-methylphenyl)-2-(piperazin-1-yl)acetamide]
630 | COc1ccc(-c2cnc3c(Nc4ccc(NC(C)=O)c(CO)c4)nccn23)cc1 [Example 50, N-(2-(hydroxymethyl)-4-((3-(4-methoxyphenyl)imidazo[1,2-a]pyrazin-8-yl)amino)phenyl)acetamide]
750 | COc1ccc(-c2cnc3c(Nc4ccc(NC(=O)CCl)cc4)nccn23)cc1 [Example 51, 2-chloro-N-(4-((3-(4-methoxyphenyl)imidazo[1,2-a]pyrazin-8-yl)amino)phenyl)acetamide]
980 | COc1ccc(-c2cnc3c(Nc4ccc(S(C)(=O)=O)cc4)nccn23)cc1 [Example 52, 3-(4-Methoxyphenyl)-N-(4-(methylsulfonyl)phenyl)imidazo[1,2-a]pyrazin-8-amine]

IC90 [nM] | Structure (SMILES)
360 | CC(=O)Nc1ccc(Nc2nccn3c(-c4ccc(F)cc4)cnc23)cc1C [Example 53, N-(4-((3-(4-fluorophenyl)imidazo[1,2-a]pyrazin-8-yl)amino)-2-methylphenyl)acetamide]
720 | Cc1cc(Nc2nccn3c(-c4ccc(OC(F)F)cc4)cnc23)ccc1N1CCCC1=O [Example 54, 1-(4-((3-(4-(difluoromethoxy)phenyl)imidazo[1,2-a]pyrazin-8-yl)amino)-2-methylphenyl)pyrrolidin-2-one]
280 | CCN1CCN(CC(=O)Nc2ccc(Nc3nccn4c(-c5ccc(OC(F)F)cc5)cnc34)cc2C)CC1 [Example 55, N-(4-((3-(4-(difluoromethoxy)phenyl)imidazo[1,2-a]pyrazin-8-yl)amino)-2-methylphenyl)-2-(4-ethylpiperazin-1-yl)acetamide]
250 | Cc1cc(Nc2nccn3c(-c4ccc(OC(F)F)c(F)c4)cnc23)ccc1N1CCCC1=O [Example 56, 1-(4-((3-(4-(difluoromethoxy)-3-fluorophenyl)imidazo [1,2-a]pyrazin-8-yl)amino)-2-methylphenyl)pyrrolidin-2-one]
140 | O=C1CCCN1c1ccc(Nc2nccn3c(-c4ccc(OC(F)F)c(F)c4)cnc23)cc1 [Example 57, 1-(4-((3-(4-(difluoromethoxy)-3-fluorophenyl)imidazo [1,2-a]pyrazin-8-yl)amino)phenyl)pyrrolidin-2-one]
260 | COc1ccc(-c2cnc3c(Nc4ccc(N5CCCC5=O)c(C)c4)nccn23)cc1 [Example 58, 1-(4-((3-(4-methoxyphenyl)imidazo[1,2-a]pyrazin-8-yl)amino)-2-methylphenyl)pyrrolidin-2-one]
250 | Cc1cc(Nc2nccn3c(-c4ccc(OC(F)F)cc4)cnc23)ccc1NC(=O)CN1CCC(N)C1 (stereo not drawn) [Example 59, 2-(3-aminopyrrolidin-1-yl)-N-(4-((3-(4-(difluoromethoxy)phenyl)imidazo[1,2-a]pyrazin-8-yl)amino)-2-methylphenyl)acetamide]
760 | Cc1cc(Nc2nccn3c(-c4ccc(Cl)cc4)cnc23)ccc1N1CCCC1=O [Example 60, 1-(4-((3-(4-chlorophenyl)imidazo[1,2-a]pyrazin-8-yl)amino)-2-methylphenyl)pyrrolidin-2-one]
730 | COc1ccc(-c2cnc3c(Nc4ccc(S(=O)(=O)NCCOCCN)c(C)c4)nccn23)cc1 [Example 61, N-(2-(2-aminoethoxy)ethyl)-4-((3-(4-methoxyphenyl)imidazo[1,2-a]pyrazin-8-yl)amino)-2-methylbenzenesulfonamide]
750 | C#CCOc1ccc(-c2cnc3c(Nc4ccc(NC(C)=O)cc4)nccn23)cc1 [Example 65, N-(4-((3-(4-(prop-2-yn-1-yloxy)phenyl)imidazo[1,2-a]pyrazin-8-yl)amino)phenyl)acetamide]
280 | COc1ccc(-c2cnc3c(Nc4ccc(NC(=O)COCCN)c(C)c4)nccn23)cc1 [Example 75, 2-(2-aminoethoxy)-N-(4-((3-(4-methoxyphenyl)imidazo[1,2-a]pyrazin-8-yl)amino)-2-methylphenyl)acetamide hydrochloride]
730 | CNC(=O)c1cc(Nc2nccn3c(-c4ccc(OC)cc4)cnc23)ccc1Cl [Example 76, 2-chloro-5-((3-(4-methoxyphenyl)imidazo[1,2-a]pyrazin-8-yl)amino)-N-methylbenzamide]
630 | COc1ccc(-c2cnc3c(Nc4ccc(S(=O)(=O)N(C)C)cc4)nccn23)cc1 [Example 77, 4-((3-(4-methoxyphenyl)imidazo[1,2-a]pyrazin-8-yl)amino)-N,N-dimethylbenzenesulfonamide]
580 | COc1ccc(-c2cnc3c(Nc4ccc(S(=O)(=O)N5CCOCC5)cc4)nccn23)cc1 [Example 78, 3-(4-methoxyphenyl)-N-(4-(morpholinosulfonyl)phenyl)imidazo[1,2-a]pyrazin-8-amine]
850 | COc1ccc(-c2cnc3c(Nc4ccc(S(=O)(=O)N5CCN(C)CC5)cc4)nccn23)cc1 [Example 79, 3-(4-methoxyphenyl)-N-(4-((4-methylpiperazin-1 - yl)sulfonyl)phenyl) imidazo[1,2-a]pyrazin-8-amine]
760 | CCN(CC)C(=O)CNS(=O)(=O)c1ccc(Nc2nccn3c(-c4ccc(OC)cc4)cnc23)cc1 [Example 80, N,N-diethyl-2-(4-((3-(4-methoxyphenyl)imidazo[1,2-a]pyrazin-8-yl)amino)phenylsulfonamido) acetamide]
630 | COc1ccc(-c2cnc3c(Nc4ccc(S(C)(=O)=O)c(Cl)c4)nccn23)cc1 [Example 81, N-(3-chloro-4-(methylsulfonyl)phenyl)-3-(4-methoxyphenyl) imidazo [1,2-a]pyrazin-8-amine]
890 | CC(=O)Nc1ccc(Nc2nccn3c(-c4ccc(F)c(F)c4F)cnc23)cc1 [Example 82, N-(4-((3-(2,3,4-trifluorophenyl)imidazo[1,2-a]pyrazin-8-yl)amino)phenyl)acetamide]
